How the values were obtained:
[1] = stability of the isolated HCl salt on exposure to air; type: physicochemical; details: white solid, larger scale
Source text: A gram-scale synthesis of sazetidine A is outlined in FIG. 1a. The Boc-protected azidityl methyl alcohol 2 and 3-bromo-5-hydroxy pyridine (3) are both commercially available. Treatment with PPh3 and DEAD according to the Mitsunobu protocol formed ether derivative 4 in 70% yield. Palladium-mediated coupling of the bromo-substituted pyridine 4 with 5-hexyn-1-ol under modified Sonogashira conditions furnished Boc-protected sazetidine A in 73% yield. Deprotection of the Boc-group with HCl was expected to give sazetidine A in salt form as published in the literature.

α4β2 nAChRs [2] = target: T1, α4β2 nAChRs (Homo sapiens, UniProt P17787+P43681); details: added alone; cited from earlier work
T1 construct: expressed in transfected cells; host or cells: SH-EP1 (SH-EP1-pcDNA-hα4β2)

[3] = in vivo; cited from earlier work
α4β2 nAChRs [4] = target: T2, α4β2 nAChRs (Rattus norvegicus, UniProt P09483+P12390); experiment: [3H]epibatidine competition binding, α4β2 nAChR; details: triazole in place of alkyne
T2 construct: expressed in transfected cells; host or cells: HEK293 (KXα4β2)
Experimental: The cell lines KXα3β4R2, expressing rat α3β4 nAChRs, and KXα4β2, expressing rat α4β2 nAChRs, were established previously by stably transfecting human embryonic kidney 293 cells with combinations of rat nAChR subunit genes. These cell lines are maintained in minimum essential medium supplemented with 10% fetal bovine serum, 100 units/mL penicillin G, […] streptomycin, and 0.7 mg/mL G418 (Geneticin) at 37° C. with 5% CO2 in a humidified incubator. The cell line SH-EP1-pcDNA-hα4β2, expressing human α4β2 nAChRs, was described previously and are available. […]
The Ki values of compounds for binding to α3β4, α4β2 and other nAChR sub-types will be measured by competition experiments with [3H]epibatidine or other labeled ligands. […]
In brief, cultured cells at above about 80% confluence will be removed from their flasks (80 cm^2) with a disposable cell scraper and will be placed in 10 mL of 50 mM Tris-HCl buffer, pH 7.4, 4° C. […] Nonspecific binding will be assessed in parallel incubations in the presence of 300 μM nicotine. […] The filter-retained radioactivity will be measured by liquid scintillation counting. […] Data from saturation and competition binding assays will be analyzed using Prism 4 (GraphPad Software, San Diego, Calif.).

## OCCCCC#Cc1cncc(OCC2CCN2)c1 (stereo not shown) [sazetidine A]
[1]
  stability of the HCl salt on exposure to air: immediately resulted in decomposition
α4β2 nAChRs [2]
  agonist activity at α4β2 nAChRs: only low agonist activity

## Clc1ccc(C2CC3CCC2N3)cn1 (stereo not shown) [Epibatidine]
[3]
  analgesic potency relative to morphine: ~200 times

## OCCCCc1cn(-c2cncc(OCC3CCN3)c2)nn1 (stereo not shown) [triazetidine O]
α4β2 nAChRs [4]
  decrease in Ki relative to sazetidine A: approximately 10 fold

Source: patent US8729103B2, “Silent desensitizers of neuronal nAChR and methods of use thereof” (priority 2008, dated 2014)
